In patent US10821151B2, “Compositions and methods for treating cancer and persistent viral infections” (SUSAVION BIOSCIENCES, INC., priority 2015, dated 2020):
Positions of bridges follow the written chain, without caps; N, C: chain ends. Chains are numbered I, II in the order given. No end group written: not given here.

Tests used:
NKG2D = target: T1, NKG2D (Homo sapiens, UniProt P26718); assay: solid-phase binding assay with Fc-chimeric NKG2D; settings: for inhibition of binding of SVH1C to NKG2D: fetuin 5, 10, 30 μM, sialyllactose 12, 20, 40 μM
T1 sequence (P26718 78-216 limits assumed): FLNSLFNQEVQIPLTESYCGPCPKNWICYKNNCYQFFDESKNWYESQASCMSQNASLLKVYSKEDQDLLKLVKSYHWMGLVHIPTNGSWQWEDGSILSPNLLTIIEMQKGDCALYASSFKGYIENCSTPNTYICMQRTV

MTS cell viability assay = format: cell-based; settings: human, human PBMCs; 3 days, peptide alone or with diluted anti-HIV antiserum, 1 nM to 1 μM
Description: (§1) Human PBMCs were incubated 3 days with peptides and then assay plates were stained with the soluble tetrazolium-based dye MTS to determine cell viability. The mitochondrial enzymes of metabolically active cells metabolize MTS to yield a colored formazan product. After an incubation period of 4 to 6 h at 37° C., the plates were read spectrophotometrically. Cells treated with peptide SVH1C alone or with diluted anti-HIV antiserum were 100±2% viable at peptide concentrations of 1 nM to 1 μM. In another assay to determine cytotoxicity, cells were doubly stained with acridine orange and ethidium bromide. In this assay, viable cells fluoresce green while dead cells fluoresce red.

cells = assay: acridine orange / ethidium bromide cytotoxicity assay; format: cell-based; settings: 1 mM
Description: as §1

DC-SIGN = target: T2, DC-SIGN (Homo sapiens, UniProt Q9NNX6); assay: solid-phase binding assay
T2 sequence (Q9NNX6 1-404): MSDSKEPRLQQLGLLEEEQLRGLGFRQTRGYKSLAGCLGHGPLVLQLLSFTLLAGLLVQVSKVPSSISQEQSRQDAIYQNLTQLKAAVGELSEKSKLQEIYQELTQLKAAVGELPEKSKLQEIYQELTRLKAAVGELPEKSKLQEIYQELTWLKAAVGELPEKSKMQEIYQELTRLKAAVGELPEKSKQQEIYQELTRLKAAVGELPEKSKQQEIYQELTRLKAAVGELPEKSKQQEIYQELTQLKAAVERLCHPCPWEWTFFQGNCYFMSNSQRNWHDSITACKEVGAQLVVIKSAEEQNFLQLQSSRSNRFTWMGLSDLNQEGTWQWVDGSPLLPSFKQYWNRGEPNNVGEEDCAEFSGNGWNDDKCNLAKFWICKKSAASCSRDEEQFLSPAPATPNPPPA
Description: (§2) The buffer in these assays was PBS containing 0.05% Tween-20. […] The receptors were Fc-chimeras and were assayed in protein A/G-coated microtiter wells. Siglec-1 and CLEC10a contained a C-terminal His tag and were assayed in a separate experiment with Ni-coated wells. SEM was determined from four independent experiments run in duplicate. Inhibition by fetuin is shown by the average of two assays in which the glycoprotein was added at 10 μM (second, black bar) or 30 μM (third, light grey bar) in each receptor group. Binding was measured by a colorimetric assay of peroxidase.
(§3) The buffer in these assays was PBS containing 0.05% Tween-20. […] The receptors were Fc-chimeras and were assayed in protein A/G-coated microtiter wells. The assay was similar to that described under FIG. 7.
(§4) Biotinylated peptides were then incubated with the receptors, the wells were stringently washed and the bound peptide was detected by binding of streptavidin conjugated with peroxidase.

CLEC9a = CLEC9a (Homo sapiens, UniProt Q6UXN8); assay: solid-phase binding assay
Chain of CLEC9a (Q6UXN8 whole entry): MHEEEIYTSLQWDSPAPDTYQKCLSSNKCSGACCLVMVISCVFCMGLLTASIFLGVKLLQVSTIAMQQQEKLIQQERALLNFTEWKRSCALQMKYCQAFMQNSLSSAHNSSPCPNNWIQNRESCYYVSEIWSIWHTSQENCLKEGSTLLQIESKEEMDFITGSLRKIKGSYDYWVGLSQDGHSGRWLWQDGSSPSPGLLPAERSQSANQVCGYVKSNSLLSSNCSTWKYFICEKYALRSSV
Description: as §2, §3, §4

dectin-1 = target: T3, dectin-1 (Homo sapiens, UniProt Q9BXN2); assay: solid-phase binding assay
T3 sequence (Q9BXN2 1-247): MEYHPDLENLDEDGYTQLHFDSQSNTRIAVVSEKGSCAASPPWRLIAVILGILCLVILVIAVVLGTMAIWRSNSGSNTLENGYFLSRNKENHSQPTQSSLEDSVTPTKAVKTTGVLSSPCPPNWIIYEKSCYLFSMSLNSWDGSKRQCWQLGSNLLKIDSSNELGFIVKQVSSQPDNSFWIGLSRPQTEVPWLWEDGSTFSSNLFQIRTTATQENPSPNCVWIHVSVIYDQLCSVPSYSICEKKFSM
Description: (§5) The buffer in these assays was PBS containing 0.05% Tween-20. […] The receptors were Fc-chimeras and were assayed in protein A/G-coated microtiter wells.
as §4

ASGPR-1 = target: T4, ASGPR-1 (Homo sapiens, UniProt P07306); assay: solid-phase binding assay
T4 sequence (P07306 1-291): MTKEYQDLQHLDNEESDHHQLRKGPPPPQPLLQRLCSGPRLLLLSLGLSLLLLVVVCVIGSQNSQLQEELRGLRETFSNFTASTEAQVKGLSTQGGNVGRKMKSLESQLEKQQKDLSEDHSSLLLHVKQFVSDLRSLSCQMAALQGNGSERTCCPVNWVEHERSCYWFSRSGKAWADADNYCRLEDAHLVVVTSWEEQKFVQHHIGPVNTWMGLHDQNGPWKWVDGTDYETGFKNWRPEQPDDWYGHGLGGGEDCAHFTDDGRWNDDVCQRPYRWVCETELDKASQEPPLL
Description: as §5, §4

ovarian cancer cell line = assay: mouse model of ovarian cancer, ascites monitored by body weight
Description: Body weights of individual mice were measured during treatment with 1 or 0.1 nmole/g doses of SV6D (SEQ ID NO:5) injected subcutaneously every other day.
In a mouse model of ovarian cancer, a cancer cell line was implanted into the peritoneal cavity. The cells form tumors and in time also release malignant cells into the cavity. The activity of SV6D to treat ovarian cancer was tested by alternate-day injections of 1 and 0.1 nanomole per gram of SV6D. Development of ascites was monitored by an increase in body weight of the animals.

Siglec-1 = Siglec-1 (Homo sapiens, UniProt Q9BZZ2); assay: solid-phase binding assay
Chain of Siglec-1 (Q9BZZ2 20-1709): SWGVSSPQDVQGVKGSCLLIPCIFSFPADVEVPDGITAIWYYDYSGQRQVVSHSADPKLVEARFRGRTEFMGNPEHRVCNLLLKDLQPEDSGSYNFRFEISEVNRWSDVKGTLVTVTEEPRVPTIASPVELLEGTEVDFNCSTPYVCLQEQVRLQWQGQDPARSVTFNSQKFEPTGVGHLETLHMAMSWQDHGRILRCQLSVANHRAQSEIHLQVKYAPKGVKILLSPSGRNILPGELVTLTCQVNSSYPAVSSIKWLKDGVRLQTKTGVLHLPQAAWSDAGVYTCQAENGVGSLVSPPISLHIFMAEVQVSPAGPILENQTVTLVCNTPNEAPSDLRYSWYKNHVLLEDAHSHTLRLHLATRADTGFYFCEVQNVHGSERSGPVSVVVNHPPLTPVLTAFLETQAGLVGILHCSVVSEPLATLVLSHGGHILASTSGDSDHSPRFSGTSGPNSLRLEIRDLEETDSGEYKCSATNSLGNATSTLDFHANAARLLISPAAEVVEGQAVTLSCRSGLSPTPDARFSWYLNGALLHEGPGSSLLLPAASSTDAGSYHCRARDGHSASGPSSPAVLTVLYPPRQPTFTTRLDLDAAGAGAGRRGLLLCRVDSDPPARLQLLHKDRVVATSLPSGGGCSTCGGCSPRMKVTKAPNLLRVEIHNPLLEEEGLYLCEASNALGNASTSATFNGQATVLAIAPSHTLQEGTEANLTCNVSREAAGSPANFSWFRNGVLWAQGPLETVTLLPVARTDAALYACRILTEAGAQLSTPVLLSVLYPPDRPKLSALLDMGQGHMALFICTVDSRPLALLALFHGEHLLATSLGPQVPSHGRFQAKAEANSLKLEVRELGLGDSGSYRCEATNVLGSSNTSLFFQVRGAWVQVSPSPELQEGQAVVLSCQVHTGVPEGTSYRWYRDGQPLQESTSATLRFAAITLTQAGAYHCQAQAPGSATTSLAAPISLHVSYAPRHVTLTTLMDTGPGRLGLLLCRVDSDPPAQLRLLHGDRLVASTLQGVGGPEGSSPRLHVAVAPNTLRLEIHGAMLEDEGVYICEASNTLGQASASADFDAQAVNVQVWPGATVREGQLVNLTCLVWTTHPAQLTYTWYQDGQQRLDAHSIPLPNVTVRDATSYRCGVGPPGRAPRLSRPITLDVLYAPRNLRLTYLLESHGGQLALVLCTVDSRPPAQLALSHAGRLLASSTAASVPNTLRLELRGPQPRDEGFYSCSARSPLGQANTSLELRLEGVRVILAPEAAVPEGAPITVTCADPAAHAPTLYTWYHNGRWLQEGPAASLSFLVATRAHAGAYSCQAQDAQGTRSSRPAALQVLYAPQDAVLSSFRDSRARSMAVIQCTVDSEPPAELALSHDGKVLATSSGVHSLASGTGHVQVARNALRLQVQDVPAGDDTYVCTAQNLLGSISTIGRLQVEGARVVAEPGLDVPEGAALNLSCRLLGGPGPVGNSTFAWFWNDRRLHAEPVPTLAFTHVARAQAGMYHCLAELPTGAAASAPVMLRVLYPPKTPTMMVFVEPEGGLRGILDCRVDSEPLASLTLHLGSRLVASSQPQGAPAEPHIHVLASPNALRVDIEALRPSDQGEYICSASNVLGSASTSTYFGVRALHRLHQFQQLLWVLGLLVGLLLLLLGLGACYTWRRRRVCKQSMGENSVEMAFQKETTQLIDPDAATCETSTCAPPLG
Description: as §5, §4

langerin = langerin (Homo sapiens, UniProt Q9UJ71); assay: solid-phase binding assay
Chain of langerin (Q9UJ71 whole entry): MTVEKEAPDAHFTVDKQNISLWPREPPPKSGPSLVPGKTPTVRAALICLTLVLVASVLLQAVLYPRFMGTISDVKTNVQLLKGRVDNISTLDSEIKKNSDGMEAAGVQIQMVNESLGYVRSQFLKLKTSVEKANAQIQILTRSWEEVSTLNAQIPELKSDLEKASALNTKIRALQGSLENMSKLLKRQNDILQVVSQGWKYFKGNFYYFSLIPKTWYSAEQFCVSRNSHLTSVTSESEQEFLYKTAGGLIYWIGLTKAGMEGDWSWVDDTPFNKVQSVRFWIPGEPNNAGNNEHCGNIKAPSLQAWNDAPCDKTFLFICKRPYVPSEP
Description: as §5, §4

CLEC10a = target: T5, CLEC10a (Homo sapiens, UniProt Q8IUN9); assay: solid-phase binding assay
T5 sequence (Q8IUN9 1-316): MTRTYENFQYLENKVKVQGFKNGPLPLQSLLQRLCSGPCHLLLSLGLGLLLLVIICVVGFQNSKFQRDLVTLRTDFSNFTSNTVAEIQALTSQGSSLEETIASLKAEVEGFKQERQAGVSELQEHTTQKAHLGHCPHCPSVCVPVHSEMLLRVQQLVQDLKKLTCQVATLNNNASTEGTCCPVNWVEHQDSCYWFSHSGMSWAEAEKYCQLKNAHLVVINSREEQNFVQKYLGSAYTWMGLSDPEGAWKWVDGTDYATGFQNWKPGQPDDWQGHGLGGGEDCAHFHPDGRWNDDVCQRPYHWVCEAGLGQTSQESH
Description: as §2, §3, §4

siglecs = assay: solid-phase binding assay, biotinylated peptide, streptavidin-peroxidase; settings: fetuin added at 10 μM or 30 μM
Description: The buffer in these assays was PBS containing 0.05% Tween-20. […] The receptors were Fc-chimeras and were assayed in protein A/G-coated microtiter wells. Siglec-1 and CLEC10a contained a C-terminal His tag and were assayed in a separate experiment with Ni-coated wells. SEM was determined from four independent experiments run in duplicate. […] Binding was measured by a colorimetric assay of peroxidase.

I: NPSHPLSGGGGSKK-NH2 / II: NPSHPLSGGGGSK / III: NPSHPLSGGGGS / IV: NPSHPLSGGGGS (amide I:13-IV:C, I:14-II:C, II:13-III:C) [SVH1C, [NPSHPLSGGGGS]4K3-NH2]
Kd (NKG2D): ~1000 nM | viability at 72 h (MTS cell viability assay): 100 ± 2% | cytotoxicity (cells): did not exhibit cytotoxicity

[NQHTPRGGGS]4K3-NH2 [SV6D]
binding to DC-SIGN (DC-SIGN): not | binding to CLEC9a (CLEC9a): not | binding to dectin-1 (dectin-1): bound strongly | binding to ASGPR-1 (ASGPR-1): bound strongly | progression of ascites (ovarian cancer cell line): effectively inhibited | binding to Siglec-1 (Siglec-1): not | binding to langerin (langerin): bound strongly | binding to CLEC10a (CLEC10a): bound strongly

sialyllactose
inhibition of binding of SVH1C to NKG2D (NKG2D): inhibited

fetuin
inhibition of binding of SVH1C to siglecs (siglecs): inhibited | inhibition of binding of SVH1C to NKG2D (NKG2D): inhibited
